Molecules are shown by their SMILES. Structures can show the parent of a compound that is named as a salt.

Four molecules from patent US7105534B2, “Imidazo[1,2-α]pyridine ether compounds as ion channel modulators” (Cardiome Pharma Corp., priority 2000, dated 2006) can be followed below.

The test system of one series is Sprague Dawley rats. In words: Cardiovascular and behavioral effects: ECG changes during i.v. infusion in conscious rats. Particulars: for D25 QT (dose required to produce a 25% increase in Q-T interval): indicates cardiac potassium channel blockade. The format is in vivo, rat. As for the experimental part: Preparative surgery is performed in Sprague Dawley rats weighing 200–300 gm and anaesthetized with 65 mg/kg (i.p.) pentobarbital. The femoral artery and vein are cannulated using polyethylene (PE)-10 tubing. Prior to surgery, this PE-10 tubing had been annealed to a wider gauge (PE-50) tubing for externalization. The cannulated PE-10/PE-50 tubing is passed through a trocar and exteriorised together with three (lead II) limb ECG leads (see below). The trocar is threaded under the skin of the back and out through a small incision at the mid-scapular region. A ground ECG electrode is inserted subcutaneously using a 20 gauge needle with the lead wire threaded through it. To place the other ECG electrodes, a small incision is made in the anterior chest region over the heart and ECG leads are inserted into the subcutaneous muscle layer in the region of the heart using a 20 guage needle. Other ECG leads are inserted into the subcutaneous muscle layer in the region near the base of the neck and shoulder (right side). The animal is returned to a clean recovery-cage with free access to food and water. The treatment and observational period for each animal commenced after a 24-hour recovery period.
A 15 min observational period is recorded followed by the intravenous infusion regime of the test compound at an initial dose of 2.0 μmol/kg/min (at 1 ml/hr). This rate is doubled every 5 minutes until one of the following effects is observed:
Blood pressure (BP), heart rate (HR) and ECG variables are continuously recorded while behavioral responses are also monitored and the total accumulative drug dose and drug infusion rate at which the response (such as convulsion, piloerection, ataxia, restlessness, compulsive chewing, lip-smacking, wet dog shake etc.) occurred are recorded.
Electrocardiograph (ECG) parameters: PR, QRS, QT1 (peak of T-wave), QT2 (midpoint of T-wave deflection) and hemodynamic parameters: BP and HR are analyzed using the automated analysis function in LabView (National Instruments) with a customized autoanalysis software (Nortran Pharmaceuticals). The infused dose producing 25% from control (D25) for all recorded ECG variables is determined.
Table 2 describes the results of the tests as D25 (micromol/kg) which are the doses required to produce a 25% increase in the ECG parameter measured (ne=not estimated). The increases in P-R interval and QRS interval indicate cardiac sodium channel blockade while the increase in Q-T interval indicates cardiac potassium channel blockade.

The target in the next series is T1, hH1 Na+ current (Homo sapiens, UniProt Q14524).
T1 construct: expressed in transfected cells; host or cells: HEK cells, transient transfection, vector pCDNA3
T1 sequence (Q14524 whole entry): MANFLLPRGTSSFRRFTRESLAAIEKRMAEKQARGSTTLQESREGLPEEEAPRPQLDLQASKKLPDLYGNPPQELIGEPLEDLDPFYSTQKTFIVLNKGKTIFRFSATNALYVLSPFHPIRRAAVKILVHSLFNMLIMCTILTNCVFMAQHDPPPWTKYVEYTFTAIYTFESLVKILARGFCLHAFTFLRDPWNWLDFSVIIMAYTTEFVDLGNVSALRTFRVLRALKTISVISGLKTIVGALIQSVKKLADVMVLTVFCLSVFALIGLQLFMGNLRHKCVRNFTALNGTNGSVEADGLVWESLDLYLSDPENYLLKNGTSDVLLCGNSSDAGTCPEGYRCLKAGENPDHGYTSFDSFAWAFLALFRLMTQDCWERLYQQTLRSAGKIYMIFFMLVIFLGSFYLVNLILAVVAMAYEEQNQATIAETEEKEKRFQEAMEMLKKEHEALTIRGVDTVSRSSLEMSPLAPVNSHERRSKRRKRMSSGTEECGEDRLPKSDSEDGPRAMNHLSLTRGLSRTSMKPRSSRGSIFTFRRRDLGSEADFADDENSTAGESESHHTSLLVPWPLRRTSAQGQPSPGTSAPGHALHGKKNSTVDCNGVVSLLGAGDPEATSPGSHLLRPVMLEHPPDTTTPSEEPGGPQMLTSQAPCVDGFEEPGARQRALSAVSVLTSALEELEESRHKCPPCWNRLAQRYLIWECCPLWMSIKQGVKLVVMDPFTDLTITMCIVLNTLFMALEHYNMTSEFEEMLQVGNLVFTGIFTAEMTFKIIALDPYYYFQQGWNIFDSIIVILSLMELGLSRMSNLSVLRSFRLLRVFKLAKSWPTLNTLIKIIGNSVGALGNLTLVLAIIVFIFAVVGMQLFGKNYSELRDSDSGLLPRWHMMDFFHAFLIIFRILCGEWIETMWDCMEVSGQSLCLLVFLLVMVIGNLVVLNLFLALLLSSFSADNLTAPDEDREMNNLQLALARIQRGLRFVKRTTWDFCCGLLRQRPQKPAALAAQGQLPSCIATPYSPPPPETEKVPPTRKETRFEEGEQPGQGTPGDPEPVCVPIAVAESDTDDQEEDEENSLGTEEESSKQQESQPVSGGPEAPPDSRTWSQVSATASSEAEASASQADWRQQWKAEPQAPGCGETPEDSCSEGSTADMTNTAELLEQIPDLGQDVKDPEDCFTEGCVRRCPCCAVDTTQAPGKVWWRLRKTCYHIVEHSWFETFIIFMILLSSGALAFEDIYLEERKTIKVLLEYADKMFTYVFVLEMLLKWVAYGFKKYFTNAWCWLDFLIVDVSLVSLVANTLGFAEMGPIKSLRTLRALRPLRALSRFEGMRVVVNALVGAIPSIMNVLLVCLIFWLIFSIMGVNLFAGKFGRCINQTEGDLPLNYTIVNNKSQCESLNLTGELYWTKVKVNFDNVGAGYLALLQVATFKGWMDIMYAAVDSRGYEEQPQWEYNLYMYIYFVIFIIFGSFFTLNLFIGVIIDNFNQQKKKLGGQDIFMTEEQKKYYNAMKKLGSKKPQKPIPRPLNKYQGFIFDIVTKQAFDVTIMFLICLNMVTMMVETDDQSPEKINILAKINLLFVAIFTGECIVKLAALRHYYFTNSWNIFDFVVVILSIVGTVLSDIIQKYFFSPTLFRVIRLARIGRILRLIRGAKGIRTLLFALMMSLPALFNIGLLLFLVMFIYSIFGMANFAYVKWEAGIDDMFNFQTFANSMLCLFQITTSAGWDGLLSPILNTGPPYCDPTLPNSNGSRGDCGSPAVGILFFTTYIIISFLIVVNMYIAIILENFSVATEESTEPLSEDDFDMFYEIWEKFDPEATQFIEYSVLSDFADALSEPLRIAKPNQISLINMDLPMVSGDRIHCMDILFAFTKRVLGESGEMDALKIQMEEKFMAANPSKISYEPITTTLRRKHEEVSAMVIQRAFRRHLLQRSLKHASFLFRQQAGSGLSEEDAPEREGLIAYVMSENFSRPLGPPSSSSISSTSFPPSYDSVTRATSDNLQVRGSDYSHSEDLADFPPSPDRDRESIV
Put plainly: Patch-clamp inhibition of cloned ion channel current in transfected HEK cells: Na. Particulars: peak hH1 Na+ current, -100 mV to -30 mV. The format is cell-based. As for the experimental part:
(§1) The relevant cloned ion channels (e.g. cardiac hH1, Kv1.4, Kv1.5, Kv4.2, Kv2.1, HERG etc.) are studied by transient transfection into HEK cells using the mammalian expression vector pCDNA3. Transfections for each channel type are carried out separately to allow individual study of the ion channel of interest. Cells expressing channel protein are detected by cotransfecting cells with the vector pHook-1 (Invitrogen, San Diego, Calif., USA). […] Equal concentrations of individual channel and pHook DNA are incubated with 10× concentration of lipofectAce in Modified Eagle's Medium (MEM, Canadian Life Technologies) and incubated with parent HEK cells plated on 25 mm culture dishes. After 3–4 hours the solution is replaced with a standard culture medium plus 20% fetal bovine serum and 1% antimycotic. Transfected cells are maintained at 37C in an air/5% CO2 incubator in 25 mm Petri dishes plated on glass coverslips for 24–48 hours to allow channel expression to occur. 20 min prior to experiments, cells are treated with beads coated with phOX. After 15 min, excess beads are […] off with cell culture medium and cells which had beads stuck to them are used for electrophysiological tests.
(§2) For whole-cell recording the control pipette filling solution contained (in mM): KCl, 130; EGTA, 5; MgCl2, 1; HEPES, 10; Na2ATP, 4; GTP, 0.1; and is adjusted to pH 7.2 with KOH. The control bath solution contained (in mM): NaCl, 135; KCI, 5; sodium acetate, 2.8; MgCl2, 1; HEPES, 10; CaCl2, 1; and is adjusted to pH 7.4 with NaOH. The test ion channel modulating compound is dissolved to 10 mM stock solutions in water and used at concentrations between 0.5 and 100 μM.
(§3) Coverslips containing cells are removed from the incubator before experiments and placed in a superfusion chamber (volume 250 μl) containing the control bath solution at 22C to 23C. All recordings are made via the variations of the patch-clamp technique, using an Axopatch 200A amplifier (Axon Instruments, CA). Patch electrodes are pulled from thin-walled borosilicate glass (World Precision Instruments; FL) on a horizontal micropipette puller, fire-polished, and filled with appropriate solutions. Electrodes had resistances of […] when filled with control filling solution. Analog capacity compensation is used in all whole cell measurements. In some experiments, leak subtraction is applied to data. Membrane potentials have not been corrected for any junctional potentials that arose between the pipette and bath solution. Data are filtered at 5 to 10 kHz before digitization and stored on a microcomputer for later analysis using the pClamp6 software (Axon Instruments, Foster City, Calif.). Due to the high level of expression of channel cDNA's in HEK cells, there is no need for signal averaging. The average cell capacitance is quite small, and the absence of ionic current at negative membrane potentials allowed faithful leak subtraction of data.
(§4) The concentration-response curves for changes in peak and steady-state current produced by the test compound are computer-fitted to the Hill equation: f=1−1/[1+([…])^n] [1]
(§5) where f is the fractional current (f=Idrug/Icontrol) at drug concentration [D]; IC50 is the concentration producing half-maximal inhibition and n is the Hill coefficient.
(§6) Compounds of the present invention may be evaluated by this method. […] Block is determined from the decrease in peak hH1 Na^+ current, or in steady-state Kv1.5 and integrated Kv4.2 current in the presence of drug. To record Na^+ current, cells are depolarized from the holding potential of −100 mV to a voltage of −30 mV for 10 ms to fully open and inactivate the channel. To record Kv1.5 and Kv4.2 current, cells are depolarized from the holding potential of −80 mV to a voltage of +60 mV for 200 ms to fully open the channel. Currents are recorded in the steady-state at a range of drug concentrations during stimulation every 4 s. […]

A further series concerns the target T2, Kv1.5 (Homo sapiens, UniProt P22460).
T2 construct: expressed in transfected cells; host or cells: HEK cells, transient transfection, vector pCDNA3
In words: Patch-clamp inhibition of cloned ion channel current in transfected HEK cells: Kv1.5. The format is cell-based. Particulars: steady-state current, -80 mV to +60 mV. As for the experimental part:
as §1, §2, §3, §4, §5, §6

A further series concerns the target T3, Kv4.2 (Homo sapiens, UniProt Q9NZV8).
T3 construct: expressed in transfected cells; host or cells: HEK cells, transient transfection, vector pCDNA3
T3 sequence (Q9NZV8 1-630): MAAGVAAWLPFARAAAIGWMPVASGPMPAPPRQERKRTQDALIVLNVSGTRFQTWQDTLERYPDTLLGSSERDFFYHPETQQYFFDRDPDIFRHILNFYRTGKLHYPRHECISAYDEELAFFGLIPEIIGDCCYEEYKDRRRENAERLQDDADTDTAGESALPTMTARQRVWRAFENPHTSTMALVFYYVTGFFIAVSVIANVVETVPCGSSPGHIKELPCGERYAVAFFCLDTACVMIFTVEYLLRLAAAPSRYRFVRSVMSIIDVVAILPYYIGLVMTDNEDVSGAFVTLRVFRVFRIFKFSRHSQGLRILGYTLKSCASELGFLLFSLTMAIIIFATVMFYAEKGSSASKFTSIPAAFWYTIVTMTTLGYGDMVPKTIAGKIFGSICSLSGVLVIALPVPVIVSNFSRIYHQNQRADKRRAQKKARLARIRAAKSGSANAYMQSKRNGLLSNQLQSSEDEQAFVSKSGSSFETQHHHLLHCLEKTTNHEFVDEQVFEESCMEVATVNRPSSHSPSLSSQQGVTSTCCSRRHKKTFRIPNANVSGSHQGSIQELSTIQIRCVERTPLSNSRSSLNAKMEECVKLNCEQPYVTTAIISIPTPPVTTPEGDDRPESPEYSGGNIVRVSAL
Put plainly: Patch-clamp inhibition of cloned ion channel current in transfected HEK cells: Kv4.2. The format is cell-based. The settings on record: integrated current, -80 mV to +60 mV. The method, then:
as §1, §2, §3, §4, §5, §6
For orientation: In patch-clamp work, channel activity is measured electrically.

The next series concerns the target T4, HERG (Homo sapiens, UniProt Q12809).
T4 construct: expressed in transfected cells; host or cells: HEK cells, transient transfection, vector pCDNA3
Put plainly: Patch-clamp inhibition of cloned ion channel current in transfected HEK cells: HERG. In kind it is cell-based. Particulars: whole-cell patch clamp. As for the experimental part: as §1, §2, §3, §4, §5, §6

A further series relates to CD-1 mice. In words: Assessment of pain blockage: pin prick, mouse tail. In kind it is in vivo. Particulars: injection into lateral tail vein with tourniquet. The method, then: CD-1 mice (20–30 g) are restrained in an appropriate holder. A tourniquet is placed at the base of the tail and a solution of the test compound (50 μl, 5 mg/ml) is injected into the lateral tail vein. The tourniquet is removed 10 min after the injection. Suitable dilutions of compound solution are used to obtain an ED50 for pain blockade at various times after injection. Pain responses are assessed by pin prick at regular intervals up to 4 hours post injection and the duration of pain blockage is recorded for three animals for each test compound solution. Compounds of the present invention may be evaluated according to the method described.

The next series concerns Mongrel dogs. Put plainly: Canine vagal-AF model: termination of sustained atrial fibrillation. In kind it is in vivo, dog. Particulars: IV. As for the experimental part: Mongrel dogs of either sex weighing 15-49 kg are anesthetized with morphine (2 mg/kg im initially, followed by 0.5 mg/kg IV every 2 h) and α-chloralose (120 mg/kg IV followed by an infusion of 29.25 mg/kg/h; St.-Georges et al., 1997). Dogs are ventilated mechanically with room air supplemented with oxygen via an endotracheal tube at 20 to 25 breaths/minute with a tidal volume obtained from a nomogram. […] Catheters are inserted into the femoral artery for blood pressure recording and blood gas measurement, and into both femoral veins for drug administration and venous sampling. Catheters are kept patent with heparinized 0.9% saline solution. Body temperature is maintained at 37-40° C. with a heating blanket. […] Drug effects to terminate sustained AF maintained during continuous vagal nerve stimulation are assessed. […] The vagal stimulation voltage is adjusted under control conditions, and then readjusted after each treatment to maintain the same bradycardic effect. […] Diastolic threshold current is determined at a basic cycle length of 300 ms by increasing the current 0.1 mA incrementally until stable capture is obtained. […] Atrial and ventricular ERP is measured with the extrastimulus method, over a range of S1S2 intervals at a basic cycle length of 300 ms. […] Diastolic threshold and ERP are determined in duplicate and averaged to give a single value. […]

The mark [1] stands for this setting: indicates cardiac sodium channel blockade.

T2 sequence (P22460 whole entry): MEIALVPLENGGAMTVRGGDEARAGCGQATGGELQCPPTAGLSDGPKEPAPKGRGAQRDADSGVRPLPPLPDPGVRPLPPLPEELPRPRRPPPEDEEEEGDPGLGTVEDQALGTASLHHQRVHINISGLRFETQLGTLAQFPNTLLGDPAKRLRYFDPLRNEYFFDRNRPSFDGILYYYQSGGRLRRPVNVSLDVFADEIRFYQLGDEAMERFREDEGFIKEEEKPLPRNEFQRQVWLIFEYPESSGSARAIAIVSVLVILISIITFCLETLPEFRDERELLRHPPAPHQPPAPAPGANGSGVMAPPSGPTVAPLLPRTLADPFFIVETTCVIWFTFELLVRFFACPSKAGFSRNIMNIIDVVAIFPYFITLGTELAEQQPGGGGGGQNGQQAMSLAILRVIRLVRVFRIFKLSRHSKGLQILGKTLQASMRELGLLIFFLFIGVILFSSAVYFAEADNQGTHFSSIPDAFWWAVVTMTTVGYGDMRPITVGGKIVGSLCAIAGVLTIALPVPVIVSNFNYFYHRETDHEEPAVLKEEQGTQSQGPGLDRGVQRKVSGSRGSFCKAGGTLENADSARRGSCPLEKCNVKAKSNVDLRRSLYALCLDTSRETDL
T4 sequence (Q12809 whole entry): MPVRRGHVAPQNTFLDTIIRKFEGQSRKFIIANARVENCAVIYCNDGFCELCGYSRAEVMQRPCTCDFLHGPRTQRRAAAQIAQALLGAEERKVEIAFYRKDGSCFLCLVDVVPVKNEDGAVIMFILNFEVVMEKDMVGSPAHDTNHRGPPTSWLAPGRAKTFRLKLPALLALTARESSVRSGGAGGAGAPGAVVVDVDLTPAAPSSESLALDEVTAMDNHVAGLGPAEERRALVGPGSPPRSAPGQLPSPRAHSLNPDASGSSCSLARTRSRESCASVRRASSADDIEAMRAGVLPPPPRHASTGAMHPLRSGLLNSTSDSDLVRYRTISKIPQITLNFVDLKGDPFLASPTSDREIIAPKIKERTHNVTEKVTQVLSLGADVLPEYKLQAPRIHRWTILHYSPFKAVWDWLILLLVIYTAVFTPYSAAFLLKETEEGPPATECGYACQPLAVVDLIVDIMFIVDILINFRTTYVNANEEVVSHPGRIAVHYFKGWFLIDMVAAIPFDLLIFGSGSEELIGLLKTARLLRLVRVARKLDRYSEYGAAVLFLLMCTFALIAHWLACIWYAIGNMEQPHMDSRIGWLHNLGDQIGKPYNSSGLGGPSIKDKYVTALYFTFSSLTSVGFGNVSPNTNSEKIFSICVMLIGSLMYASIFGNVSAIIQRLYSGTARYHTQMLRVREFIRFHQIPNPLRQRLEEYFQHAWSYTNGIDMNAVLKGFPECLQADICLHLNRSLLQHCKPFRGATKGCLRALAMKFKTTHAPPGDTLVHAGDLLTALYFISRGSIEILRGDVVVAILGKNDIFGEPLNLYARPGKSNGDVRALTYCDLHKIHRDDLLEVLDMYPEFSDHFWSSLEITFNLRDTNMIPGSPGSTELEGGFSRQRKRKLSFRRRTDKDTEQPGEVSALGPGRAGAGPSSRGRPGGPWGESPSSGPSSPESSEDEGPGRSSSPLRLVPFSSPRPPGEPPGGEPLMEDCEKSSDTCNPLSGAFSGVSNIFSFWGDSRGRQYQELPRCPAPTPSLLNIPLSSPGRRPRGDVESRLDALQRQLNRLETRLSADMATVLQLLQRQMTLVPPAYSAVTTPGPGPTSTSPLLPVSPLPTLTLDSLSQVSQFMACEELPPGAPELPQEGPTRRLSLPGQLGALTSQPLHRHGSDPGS

As to `Cc1cn2cccc(OCCCc3ccccc3)c2n1` [Compound 2, 2-METHYL-8-[3-PHENYLPROPOXY]IMIDAZO[1,2-α]PYRIDINE MONOHYDROCHLORIDE], the “D25 QT (dose required to produce a 25% increase in Q-T interval)” value with Sprague Dawley rats was 16 µmol/kg. Further, the “D25 PR (dose required to produce a 25% increase in P-R interval)” value with Sprague Dawley rats (setting [1]) worked out at 24 µmol/kg. Further, the half-maximal inhibitory concentration (IC50) (usually the point on the concentration scale where inhibition reaches its midpoint) was found to be 34 µM against hH1 Na+ current, 4 µM against Kv1.5, 7 µM against Kv4.2 and 0.06 µM at HERG.
Take `Cc1cn2cccc(OCCCc3ccc(Cl)cc3Cl)c2n1` [Compound 1, 8-[3-(2,4-DICHLOROPHENYL)PROPOXY]-2-METHYLIMIDAZO[1,2-α]PYRIDINEMONOHYDROCHLORIDE]: the “D25 QT (dose required to produce a 25% increase in Q-T interval)” value in the series on Sprague Dawley rats is 8 µmol/kg. Further, in the series on Sprague Dawley rats (setting [1]), the “D25 PR (dose required to produce a 25% increase in P-R interval)” value was 14 µmol/kg. In addition, the “D25 QRS (dose required to produce a 25% increase in QRS interval)” value in the series on Sprague Dawley rats (setting [1]) is 12 µmol/kg. Also, in the series with CD-1 mice, the “ED50 for pain blockade” value is 0.073 mg/tail. Also, the IC50 was determined as 8 µM at hH1 Na+ current, 0.3 µM at Kv1.5, 2 µM on Kv4.2 and 0.1 µM against HERG.
`Cc1cn2cccc(OCCCc3ccc(Cl)cc3Cl)c2n1` (as salt: hydrochloride) [Compound 1, 8-[3-(2,4-DICHLOROPHENYL)PROPOXY]-2-METHYLIMIDAZO[1,2-α]PYRIDINEMONOHYDROCHLORIDE]: the melting point (commonly the temperature of the solid-liquid transition) was less than 193 °C.
`O=C(NCC1CCCCN1)c1cc(OCC(F)(F)F)ccc1OCC(F)(F)F` (centres unmarked) [Flecainide]: the “Median dose required for termination of AF” value in the series on Mongrel dogs was determined as 2.5 µmol/kg. For the same molecule, the “Mean dose required for termination of AF” value in the series on Mongrel dogs (mean ±SEM) worked out at 4 ± 2 µmol/kg.
